# Measurements as given in US12187727B2, “Methods for antagonizing a melanocortin 4 receptor” (Pfizer Inc., priority 2020, dated 2025).
# Read-outs that look alike come from different tables or passages of the source.
# Experiments:
# hMC4R = hMC4R (Homo sapiens (Human), UniProt P32245); experiment: In vitro binding affinity assay using hMC4R (radioligand competition binding, [125I]-(Nle4, D-Phe7)-α-MSH); settings: geometric mean
# Procedure: Example AA. In Vitro Binding Affinity Assay Using hMC4R
# The binding affinity of test compounds at the […] (hMC4R) was assessed using a radioligand competition binding assay. […] Cell membranes were bulked and frozen until the assay was performed.
# Compounds were solubilized in 100% dimethyl sulfoxide (DMSO) to a concentration of 30 mM. A 10-point intermediate dilution series using half log dilutions was created in 100% DMSO with a top concentration of 0.03 mM. […] The final compound range in the assay was 300 nM to 0.01 nM with a final DMSO concentration of 1%. […] The exact concentration of radioligand used for each experiment was determined by liquid scintillation counting and adjusted if necessary.
# Frozen hMC4R cell membranes were thawed and Dounce homogenized. Homogenates were resuspended in assay buffer to a concentration of 2 μg per well. […] The plates were incubated for 2 hours at room temperature.
# The raw data (expressed as counts per minute) were analyzed using ActivityBase (IDBS Data Management Software). […] Equilibrium dissociation constant for inhibitor of ligand and receptor interaction (Ki) values were then calculated from the IC50 values using the Cheng-Prusoff equation: Ki=IC50/(1+([L]/Kd)), where [L] is the concentration of the radioligand used in the experiment and Kd is the affinity of the radioligand (determined in separate saturation experiments).
# [1] = biological target: human Melanocortin-4 receptor (MC4R) (Homo sapiens (Human), UniProt P32245); experiment: Functional in vitro MC4R antagonist potency assay (cAMP HTRF in CHO cells); type: cell-based
# human Melanocortin-4 receptor (MC4R), sequence (P32245 whole entry): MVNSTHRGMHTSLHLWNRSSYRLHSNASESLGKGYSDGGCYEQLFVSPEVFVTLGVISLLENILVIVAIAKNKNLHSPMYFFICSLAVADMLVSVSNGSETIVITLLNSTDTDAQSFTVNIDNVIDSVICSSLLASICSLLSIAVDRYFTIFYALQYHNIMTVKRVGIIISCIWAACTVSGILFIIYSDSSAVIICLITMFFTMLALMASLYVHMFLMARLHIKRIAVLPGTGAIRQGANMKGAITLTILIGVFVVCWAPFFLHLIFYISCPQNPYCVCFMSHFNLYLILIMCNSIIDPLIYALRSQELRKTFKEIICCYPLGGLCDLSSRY
# Method in brief: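 CHO cells stably expressing human MC4R were preincubated 30 min at 37 °C with compound ([…], 0.1% DMSO), then stimulated 30 min with EC80 αMSH (200 nM). Intracellular cAMP quantified by HTRF competitive immunoassay and normalized to agonist-stimulated and vehicle-only wells.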
# [2] = read-out: Ki (nM) geometric mean
# [3] = read-out: Kb (nM) Antagonist geometric mean
# [4] = human MC4R in CHO cells, cAMP HTRF, 200 nM aMSH challenge, Kb from IC50 by Leff-Dougall equation, geometric mean, read-out: Kb (nM) Antagonist geometric
# hMC4R, sequence (P32245 whole entry): as above
SMILES,Ki (hMC4R; [2]) [nM],"Kb [1, 3] [nM]",Ki (hMC4R; read-out: Ki (nM) geometric) [nM],"Kb [1, 4] [nM]"
"Cc1nc2c(cc1-c1ncccn1)CC[C@@]1(CCN(C(=O)[C@H](C)c3cc(F)c(F)cc3F)C1)N2 (single isomer, unassigned) [Example 52]",0.68,2.6,,
"Cc1nc2c(cc1-c1ncccn1)CC[C@@]1(CCN(C(=O)[C@H](C)c3ccc(Cl)cc3Cl)C1)N2 (single isomer, unassigned) [Example 35]",82,> 95,,
"Cc1nc(OC(F)F)cc([C@@H](C)C(=O)N2CC[C@@]3(CCc4cc(-c5ncccn5)c(C)nc4N3)C2)n1 (single isomer, unassigned) [Example 45]",0.95,0.76,,
"COc1cc([C@@H](C)C(=O)N2CC[C@@]3(CCc4cc(-c5nc6ccccn6n5)c(C)nc4N3)C2)nc(C(F)F)n1 (single isomer, unassigned) [Example 130]",,,5.9,9
"Cc1nc2c(cc1-c1ncccn1)CC[C@@]1(CCN(C(=O)[C@H](C)c3cc(C(F)(F)F)ncc3F)C1)N2 (single isomer, unassigned) [Example 80]",8,28,,
"COc1cc([C@@H](C)C(=O)N2CC[C@@]3(CCc4cc(-c5nc(C(F)F)n(C)n5)c(C)nc4N3)C2)nc(C)n1 (single isomer, unassigned) [Example 124]",,,6.7,0.81
"COc1cc([C@](C)(F)C(=O)N2CC[C@@]3(CCc4cc(-c5ncccn5)c(C)nc4N3)C2)c(F)cn1 (single isomer, unassigned) [Example 149]",,,1.8,7.9
"Cc1nc2c(cc1-c1ncccn1)CC[C@@]1(CCN(C(=O)[C@H](C)c3ccc(Cl)cc3Cl)C1)N2 (single isomer, unassigned) [Example 34]",0.9,4.2,,
"Cc1nc2c(cc1-c1ncccn1)CC[C@@]1(CCN(C(=O)C(C)c3ccc(C(F)(F)F)cc3)C1)N2 (single isomer, unassigned) [Example 7]",0.62,8.1,,
"Cc1nc2c(cc1-c1ncccn1)CC[C@@]1(CCN(C(=O)[C@H](C)c3ccc(OC(F)(F)F)cc3)C1)N2 (single isomer, unassigned) [Example 48]",0.36,1.8,,
"Cc1nc2c(cc1-c1ncccn1)CC[C@@]1(CCN(C(=O)[C@H](C)c3cc(F)c(F)c(F)c3)C1)N2 (single isomer, unassigned) [Example 56]",0.51,0.8,,
"Cc1nc2c(cc1-c1ncccn1)CC[C@@]1(CCN(C(=O)[C@H](C)c3cc(OC(F)F)ncc3Cl)C1)N2 (single isomer, unassigned) [Example 60]",0.54,0.18,,
"Cc1nc2c(cc1-c1ncccn1)CC[C@@]1(CCN(C(=O)[C@H](C)c3cc(F)c(F)c(F)c3)C1)N2 (single isomer, unassigned) [Example 55]",58,> 95,,
"COc1ncc(F)c([C@@H](C)C(=O)N2CC[C@@]3(CCc4cc(-c5nc6ccccn6n5)c(C)nc4N3)C2)n1 (single isomer, unassigned) [Example 132]",,,3.4,35
"COc1cc([C@@H](C)C(=O)N2CCC3(CCc4cc(-c5nc(OC)n(C)n5)c(C)nc4N3)C2)c(Cl)cn1 (single isomer, unassigned) [Example 114]",,,0.48,0.25
"Cc1nc2c(cc1-c1ncccn1)CC[C@@]1(CCN(C(=O)[C@H](C)c3cc(OC(F)(F)F)ncc3F)C1)N2 (single isomer, unassigned) [Example 76]",2.2,9,,

SMILES,Ki (hMC4R; [2]) [nM],"Kb [1, 3] [nM]",Ki (hMC4R; read-out: Ki (nM) geometric) [nM],"Kb [1, 4] [nM]"
"COc1cc([C@@H](C)C(=O)N2CC[C@@]3(CCc4cc(-c5cnn(C)c5)c(C)nc4N3)C2)c(Cl)cn1 (single isomer, unassigned) [Example 105]",,,54,16
"Cc1nc2c(cc1-c1ncccn1)CC[C@@]1(CCN(C(=O)[C@H](C)c3ccc(F)cc3F)C1)N2 (single isomer, unassigned) [Example 191]",,,230,> 94
"COc1cc([C@@H](C)C(=O)N2CCC3(CCc4cc(-c5cnn(C)c5)c(C)nc4N3)C2)c(F)cn1 (single isomer, unassigned) [Example 16]",0.36,0.88,,
"COc1cc([C@@H](C)C(=O)N2CC[C@@]3(CCc4ccc(C)nc4N3)C2)nc(C)n1 (single isomer, unassigned) [Example 24, 2-(6-methoxy-2-methylpyrimidin-4-yl)-1-(7-methyl-3,4-dihydro-1H-spiro[1,8-naphthyridine-2,3′-pyrrolidin]-1′-yl)propan-1-one]",77,> 97,,
"COc1cc([C@@H](C)C(=O)N2CCC3(CCc4cc(-c5nnn(C)n5)c(C)nc4N3)C2)c(Cl)cn1 (single isomer, unassigned) [Example 1]",0.21,0.049,,
"COc1cc(OC(F)F)cc([C@@H](C)C(=O)N2CC[C@@]3(CCc4cc(-c5ncccn5)c(C)nc4N3)C2)c1 (single isomer, unassigned) [Example 62]",0.15,0.08,,
"COc1cc([C@@H](C)C(=O)N2CC[C@@]3(CCc4cc(-c5nc(C(F)(F)F)n(C)n5)c(C)nc4N3)C2)c(Cl)cn1 (single isomer, unassigned) [Example 95]",86,7.5,,
"Cc1nc2c(cc1-c1ncccn1)CC[C@@]1(CCN(C(=O)[C@H](C)c3ccnc(OC(F)F)c3)C1)N2 (single isomer, unassigned) [Example 195]",,,1.2,3.5
"Cc1nc2c(cc1-c1nnn(C)n1)CC[C@@]1(CCN(C(=O)[C@H](C)c3ccc(OC(F)F)nc3)C1)N2 (single isomer, unassigned) [Example 108]",,,1.2,7.1
"COc1cc([C@@H](C)C(=O)N2CC[C@@]3(CCc4ccc(C)nc4N3)C2)nc(C)n1 (single isomer, unassigned) [Example 25, 2-(6-methoxy-2-methylpyrimidin-4-yl)-1-(7-methyl-3,4-dihydro-1H-spiro[1,8-naphthyridine-2,3′-pyrrolidin]-1′-yl)propan-1-one]",220,> 97,,
"COc1cc([C@@H](C)C(=O)N2CC[C@@]3(CCc4cc(-c5nc(C(F)(F)F)n(C)n5)c(C)nc4N3)C2)c(F)cn1 (single isomer, unassigned) [Example 93]",16,4.1,,
"Cc1nc2c(cc1-c1ncccn1)CC[C@@]1(CCN(C(=O)[C@H](C)c3cc(OC(F)F)ncc3F)C1)N2 (single isomer, unassigned) [Example 78]",0.62,1.2,,
"COc1cc(CC(=O)N2CC[C@@]3(CCc4cc(-c5ncccn5)c(C)nc4N3)C2)c(F)cn1 [Example 106, 2-(5-fluoro-2-methoxypyridin-4-yl)-1-[(2S)-7-methyl-6-(pyrimidin-2-yl)-3,4-dihydro-1H-spiro[1,8-naphthyridine-2,3′-pyrrolidin]-1′-yl]ethan-1-one]",,,3.5,6.3
"Cc1nc2c(cc1-c1ncccn1)CC[C@@]1(CCN(C(=O)C(C)c3cc(OC(F)(F)F)ncc3Cl)C1)N2 (single isomer, unassigned) [Example 64]",1,5.1,,
"Cc1nc2c(cc1-c1ncccn1)CC[C@@]1(CCN(C(=O)[C@H](C)c3cc(F)c(F)cc3F)C1)N2 (single isomer, unassigned) [Example 53]",54,> 95,,
